According to ChEMBL document CHEMBL1629443 (J Med Chem, 2010):

Assays:
[1] = Inhibition of HDAC assessed as histone H3K'9+14 acetylation levels by cell based histone H3 hyperacetylation assay
Histone deacetylase 1 = Histone deacetylase 1 (Homo sapiens, UniProt Q13547); experiment: Inhibition of human recombinant HDAC1 expressed in HEK293 cells; assay type: cell-based
Histone deacetylase 3 = Histone deacetylase 3 (Homo sapiens, UniProt O15379); experiment: Inhibition of Flag tagged human recombinant HDAC3 expressed in Sf21 cells coexpressing SMRT DAD domain
Histone deacetylase 3, sequence (O15379 whole entry, the tested form may be a part): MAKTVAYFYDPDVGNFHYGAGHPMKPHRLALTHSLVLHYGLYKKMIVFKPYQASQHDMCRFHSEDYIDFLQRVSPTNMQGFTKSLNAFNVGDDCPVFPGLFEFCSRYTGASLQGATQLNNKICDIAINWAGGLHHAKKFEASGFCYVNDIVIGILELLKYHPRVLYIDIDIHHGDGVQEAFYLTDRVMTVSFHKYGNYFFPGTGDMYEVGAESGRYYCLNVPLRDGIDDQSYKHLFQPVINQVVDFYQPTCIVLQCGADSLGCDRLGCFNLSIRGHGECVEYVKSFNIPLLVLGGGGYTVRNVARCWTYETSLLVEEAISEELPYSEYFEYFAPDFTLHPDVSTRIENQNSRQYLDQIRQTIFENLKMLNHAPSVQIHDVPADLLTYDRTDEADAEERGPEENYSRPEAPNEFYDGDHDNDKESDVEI

Histone deacetylase 8 = target: T1, Histone deacetylase 8 (Homo sapiens, UniProt Q9BY41); experiment: Inhibition of Flag tagged human recombinant HDAC8 expressed in Sf21 cells
T1 sequence (Q9BY41 whole entry): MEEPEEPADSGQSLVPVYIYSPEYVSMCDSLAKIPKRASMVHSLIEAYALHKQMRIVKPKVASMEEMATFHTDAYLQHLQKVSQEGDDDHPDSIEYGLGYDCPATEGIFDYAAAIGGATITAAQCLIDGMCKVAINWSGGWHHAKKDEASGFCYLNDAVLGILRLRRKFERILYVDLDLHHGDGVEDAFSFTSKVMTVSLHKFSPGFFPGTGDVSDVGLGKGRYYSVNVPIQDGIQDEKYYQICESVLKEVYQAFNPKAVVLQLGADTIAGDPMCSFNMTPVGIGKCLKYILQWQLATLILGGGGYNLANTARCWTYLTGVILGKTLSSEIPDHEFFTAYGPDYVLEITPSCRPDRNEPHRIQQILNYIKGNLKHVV

[2] = target: T2, Epidermal growth factor receptor (Homo sapiens, UniProt P00533); experiment: Inhibition of EGFR by flash plate based radioactive enzyme assay
[3] = target: Receptor tyrosine-protein kinase erbB-2 (Homo sapiens, UniProt P04626); experiment: Inhibition of HER2 by flash plate based radioactive enzyme assay
[4] = target: Platelet-derived growth factor receptor beta (Homo sapiens, UniProt P09619); experiment: Inhibition of PDGFRbeta by flash plate based radioactive enzyme assay
Platelet-derived growth factor receptor beta, sequence (P09619 whole entry): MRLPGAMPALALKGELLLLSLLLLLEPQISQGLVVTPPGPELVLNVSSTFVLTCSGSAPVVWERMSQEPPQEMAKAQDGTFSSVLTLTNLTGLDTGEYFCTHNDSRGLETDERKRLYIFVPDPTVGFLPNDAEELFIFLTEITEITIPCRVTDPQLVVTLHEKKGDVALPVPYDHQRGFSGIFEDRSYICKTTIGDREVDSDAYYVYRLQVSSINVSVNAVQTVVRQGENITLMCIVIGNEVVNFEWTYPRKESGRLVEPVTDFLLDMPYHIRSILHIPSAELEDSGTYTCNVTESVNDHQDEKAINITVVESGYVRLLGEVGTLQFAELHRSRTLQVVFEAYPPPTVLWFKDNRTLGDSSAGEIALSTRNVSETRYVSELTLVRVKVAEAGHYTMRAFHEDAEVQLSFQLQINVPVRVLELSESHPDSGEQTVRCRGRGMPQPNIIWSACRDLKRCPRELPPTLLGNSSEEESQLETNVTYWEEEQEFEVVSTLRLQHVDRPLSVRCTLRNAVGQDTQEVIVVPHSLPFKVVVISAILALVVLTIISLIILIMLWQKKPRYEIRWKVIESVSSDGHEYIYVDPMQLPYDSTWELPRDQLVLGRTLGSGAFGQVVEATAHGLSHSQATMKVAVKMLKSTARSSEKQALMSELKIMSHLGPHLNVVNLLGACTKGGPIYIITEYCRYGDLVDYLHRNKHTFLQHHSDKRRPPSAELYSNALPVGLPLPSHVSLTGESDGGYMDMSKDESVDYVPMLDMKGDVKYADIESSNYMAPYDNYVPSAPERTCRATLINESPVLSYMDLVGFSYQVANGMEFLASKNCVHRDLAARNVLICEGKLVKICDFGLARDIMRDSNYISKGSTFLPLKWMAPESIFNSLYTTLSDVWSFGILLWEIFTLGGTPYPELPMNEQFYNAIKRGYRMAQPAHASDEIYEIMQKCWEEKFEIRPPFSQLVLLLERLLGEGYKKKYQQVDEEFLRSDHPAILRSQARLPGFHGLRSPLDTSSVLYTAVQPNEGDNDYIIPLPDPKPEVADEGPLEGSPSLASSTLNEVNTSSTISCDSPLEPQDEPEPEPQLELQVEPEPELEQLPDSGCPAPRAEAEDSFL

Insulin receptor = Insulin receptor (Homo sapiens, UniProt P06213); experiment: Inhibition of INSR by flash plate based radioactive enzyme assay
Insulin receptor, sequence (P06213 28-758 limits assumed): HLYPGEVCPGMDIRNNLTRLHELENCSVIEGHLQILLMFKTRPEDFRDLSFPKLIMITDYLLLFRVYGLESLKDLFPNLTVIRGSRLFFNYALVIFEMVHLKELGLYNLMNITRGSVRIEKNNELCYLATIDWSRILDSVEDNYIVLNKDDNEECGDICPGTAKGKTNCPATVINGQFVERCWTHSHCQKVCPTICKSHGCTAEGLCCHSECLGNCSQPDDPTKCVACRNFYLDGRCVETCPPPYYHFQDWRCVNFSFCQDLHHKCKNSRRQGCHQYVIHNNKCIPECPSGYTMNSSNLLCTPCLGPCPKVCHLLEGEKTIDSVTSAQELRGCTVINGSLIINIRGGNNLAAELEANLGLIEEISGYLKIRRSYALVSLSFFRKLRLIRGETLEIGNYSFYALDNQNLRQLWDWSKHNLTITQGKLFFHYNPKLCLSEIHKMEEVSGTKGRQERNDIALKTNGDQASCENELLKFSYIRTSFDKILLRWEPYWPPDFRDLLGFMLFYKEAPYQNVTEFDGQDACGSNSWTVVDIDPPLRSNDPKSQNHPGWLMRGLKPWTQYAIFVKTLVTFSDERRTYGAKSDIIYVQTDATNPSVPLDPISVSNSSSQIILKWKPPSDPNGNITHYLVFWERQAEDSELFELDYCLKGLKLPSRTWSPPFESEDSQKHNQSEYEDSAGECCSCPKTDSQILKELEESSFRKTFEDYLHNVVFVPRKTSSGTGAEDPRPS
Insulin receptor, sequence (P06213 763-1382 limits assumed): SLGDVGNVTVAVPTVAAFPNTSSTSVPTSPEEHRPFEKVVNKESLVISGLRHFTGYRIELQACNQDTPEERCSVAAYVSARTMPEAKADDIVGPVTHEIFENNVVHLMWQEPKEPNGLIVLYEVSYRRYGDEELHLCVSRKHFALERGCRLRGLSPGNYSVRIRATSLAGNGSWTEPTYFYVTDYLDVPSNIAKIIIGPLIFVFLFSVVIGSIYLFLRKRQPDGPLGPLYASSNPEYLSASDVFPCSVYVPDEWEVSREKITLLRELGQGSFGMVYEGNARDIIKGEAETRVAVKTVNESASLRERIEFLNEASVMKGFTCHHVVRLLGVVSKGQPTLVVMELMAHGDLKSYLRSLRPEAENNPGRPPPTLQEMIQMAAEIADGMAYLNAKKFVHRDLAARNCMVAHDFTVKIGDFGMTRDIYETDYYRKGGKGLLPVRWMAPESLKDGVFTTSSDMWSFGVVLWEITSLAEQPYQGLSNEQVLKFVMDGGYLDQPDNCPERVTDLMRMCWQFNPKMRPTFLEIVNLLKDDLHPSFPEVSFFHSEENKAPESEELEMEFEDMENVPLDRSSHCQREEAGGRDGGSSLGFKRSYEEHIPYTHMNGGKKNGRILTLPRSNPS

[5] = target: Tyrosine-protein kinase ABL1 (Homo sapiens, UniProt P00519); experiment: Inhibition of ABL1 by flash plate based radioactive enzyme assay
Tyrosine-protein kinase ABL1, sequence (P00519 whole entry): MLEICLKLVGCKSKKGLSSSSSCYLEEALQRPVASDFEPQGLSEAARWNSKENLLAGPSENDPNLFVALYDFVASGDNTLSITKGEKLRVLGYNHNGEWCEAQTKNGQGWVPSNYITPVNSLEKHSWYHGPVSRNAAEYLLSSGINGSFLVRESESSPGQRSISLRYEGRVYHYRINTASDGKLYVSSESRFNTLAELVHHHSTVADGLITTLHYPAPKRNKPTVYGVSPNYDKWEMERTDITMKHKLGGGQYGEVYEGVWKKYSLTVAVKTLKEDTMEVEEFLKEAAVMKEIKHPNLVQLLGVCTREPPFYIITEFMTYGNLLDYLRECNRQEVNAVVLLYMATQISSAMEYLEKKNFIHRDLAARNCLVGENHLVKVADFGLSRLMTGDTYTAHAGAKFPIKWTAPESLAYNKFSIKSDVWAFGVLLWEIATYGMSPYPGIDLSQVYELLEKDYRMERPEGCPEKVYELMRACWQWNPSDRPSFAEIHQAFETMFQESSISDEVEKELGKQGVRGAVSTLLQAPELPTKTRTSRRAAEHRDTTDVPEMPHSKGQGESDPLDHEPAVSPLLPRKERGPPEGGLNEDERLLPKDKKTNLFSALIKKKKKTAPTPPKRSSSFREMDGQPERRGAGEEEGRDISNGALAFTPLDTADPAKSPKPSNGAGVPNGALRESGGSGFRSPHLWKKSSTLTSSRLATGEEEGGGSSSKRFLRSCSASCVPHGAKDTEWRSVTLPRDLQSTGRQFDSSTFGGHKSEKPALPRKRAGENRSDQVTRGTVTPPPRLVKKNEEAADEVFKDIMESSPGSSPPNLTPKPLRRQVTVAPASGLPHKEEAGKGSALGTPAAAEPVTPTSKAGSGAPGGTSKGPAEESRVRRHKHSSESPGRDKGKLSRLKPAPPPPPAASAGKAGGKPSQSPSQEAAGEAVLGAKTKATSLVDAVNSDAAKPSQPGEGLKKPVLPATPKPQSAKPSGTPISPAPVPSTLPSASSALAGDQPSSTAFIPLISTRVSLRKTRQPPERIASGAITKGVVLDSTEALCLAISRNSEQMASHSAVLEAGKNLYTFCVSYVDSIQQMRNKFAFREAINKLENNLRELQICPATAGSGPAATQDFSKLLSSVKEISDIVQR

[6] = target: Cyclin-dependent kinase 2 (Homo sapiens, UniProt P24941); experiment: Inhibition of CDK2 by flash plate based radioactive enzyme assay
[7] = Inhibition of PKA by flash plate based radioactive enzyme assay
[8] = target: Serine/threonine-protein kinase PLK1 (Homo sapiens, UniProt P53350); experiment: Inhibition of PLK1 by flash plate based radioactive enzyme assay
A549 = experiment: Cytotoxicity against human A549 cells overexpressing HDAC by resazurin dye reduction assay
A-431 = experiment: Cytotoxicity against human A431 cells overexpressing EGFR by resazurin dye reduction assay
CAL-27 = experiment: Cytotoxicity against human CAL27 cells overexpressing EGFR by resazurin dye reduction assay
SK-BR-3 = experiment: Cytotoxicity against human SKBR3 cells overexpressing HER2 by resazurin dye reduction assay
SK-OV-3 = experiment: Cytotoxicity against human SKOV3 cells overexpressing HER2 by resazurin dye reduction assay; assay type: functional, cell-based
Histone deacetylase = experiment: Inhibition of HDAC in human HeLa cell nuclear extracts; assay type: cell-based
[9] = target: T3, Protein deacetylase HDAC6 (Homo sapiens, UniProt Q9UBN7); experiment: Inhibition of human recombinant HDAC6 expressed in HEK293 cells; assay type: cell-based
T3 sequence (Q9UBN7 whole entry): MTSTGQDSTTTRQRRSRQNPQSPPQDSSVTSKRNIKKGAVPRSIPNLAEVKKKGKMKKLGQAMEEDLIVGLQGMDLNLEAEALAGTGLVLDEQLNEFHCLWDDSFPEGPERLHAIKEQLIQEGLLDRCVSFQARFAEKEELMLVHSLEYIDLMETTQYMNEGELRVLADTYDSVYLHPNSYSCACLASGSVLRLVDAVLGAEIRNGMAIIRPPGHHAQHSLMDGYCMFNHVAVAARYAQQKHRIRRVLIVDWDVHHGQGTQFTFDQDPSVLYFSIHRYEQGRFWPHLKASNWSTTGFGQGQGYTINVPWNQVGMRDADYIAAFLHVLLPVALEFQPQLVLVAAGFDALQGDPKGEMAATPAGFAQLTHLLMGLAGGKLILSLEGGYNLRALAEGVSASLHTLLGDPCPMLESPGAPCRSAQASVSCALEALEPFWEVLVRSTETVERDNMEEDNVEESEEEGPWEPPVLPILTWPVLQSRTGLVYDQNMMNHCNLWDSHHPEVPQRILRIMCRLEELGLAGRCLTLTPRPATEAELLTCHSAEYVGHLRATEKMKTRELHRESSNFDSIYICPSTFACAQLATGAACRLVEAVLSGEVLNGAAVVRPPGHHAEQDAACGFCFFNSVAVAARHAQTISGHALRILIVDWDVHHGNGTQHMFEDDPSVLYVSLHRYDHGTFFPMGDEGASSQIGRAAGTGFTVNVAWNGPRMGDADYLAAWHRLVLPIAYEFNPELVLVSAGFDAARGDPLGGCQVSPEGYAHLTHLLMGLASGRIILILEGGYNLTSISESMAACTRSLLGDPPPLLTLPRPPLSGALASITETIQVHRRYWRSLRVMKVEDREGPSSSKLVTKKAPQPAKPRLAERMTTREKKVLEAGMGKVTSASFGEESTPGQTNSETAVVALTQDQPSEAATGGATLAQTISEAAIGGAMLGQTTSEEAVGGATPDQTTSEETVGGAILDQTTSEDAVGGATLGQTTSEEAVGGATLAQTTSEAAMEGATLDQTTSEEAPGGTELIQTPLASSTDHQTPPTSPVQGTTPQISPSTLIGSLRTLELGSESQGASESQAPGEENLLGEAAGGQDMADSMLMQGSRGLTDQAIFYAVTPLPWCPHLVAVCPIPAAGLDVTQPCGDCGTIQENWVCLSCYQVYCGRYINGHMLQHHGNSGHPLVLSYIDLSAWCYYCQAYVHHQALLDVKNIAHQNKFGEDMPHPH

HeLa = experiment: Cytotoxicity against human HeLa cells overexpressing HDAC by resazurin dye reduction assay
[10] = target: T2, Epidermal growth factor receptor; experiment: Inhibition of EGF-induced EGFR phosphorylation in human CAL27 cells overexpressing EGFR after 16 hrs by Western blot; assay type: cell-based, CAL-27

Histone deacetylase 1, sequence (Q13547 whole entry, the tested form may be a part): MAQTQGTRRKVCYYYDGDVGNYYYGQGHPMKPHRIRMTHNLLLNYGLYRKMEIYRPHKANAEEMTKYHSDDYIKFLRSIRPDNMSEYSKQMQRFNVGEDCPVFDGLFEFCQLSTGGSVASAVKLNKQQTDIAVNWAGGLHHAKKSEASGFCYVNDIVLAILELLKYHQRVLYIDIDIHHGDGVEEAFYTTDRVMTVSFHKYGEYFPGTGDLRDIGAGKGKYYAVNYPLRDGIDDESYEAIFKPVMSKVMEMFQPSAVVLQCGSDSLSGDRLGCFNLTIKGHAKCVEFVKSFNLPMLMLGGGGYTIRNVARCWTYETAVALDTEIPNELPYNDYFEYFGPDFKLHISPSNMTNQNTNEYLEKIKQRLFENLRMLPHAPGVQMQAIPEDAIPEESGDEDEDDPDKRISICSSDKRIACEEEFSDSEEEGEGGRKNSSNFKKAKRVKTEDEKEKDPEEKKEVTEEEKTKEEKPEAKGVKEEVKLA

| SMILES | EC50 [1] [µM] | IC50 (Histone deacetylase 1) [µM] | IC50 (Histone deacetylase 3) [µM] | IC50 (Histone deacetylase 8) [µM] | IC50 [2] [µM] | IC50 [3] [µM] | IC50 [4] [µM] | IC50 (Insulin receptor) [µM] | IC50 [5] [µM] | IC50 [6] [µM] | IC50 [7] [µM] | IC50 [8] [µM] | IC50 (Histone deacetylase) [µM] | IC50 [9] [µM] | IC50 (A549) [µM] | IC50 (A-431) [µM] | IC50 (CAL-27) [µM] | IC50 (SK-BR-3) [µM] | IC50 (SK-OV-3) [µM] | IC50 (HeLa) [µM] | other results |
| --- | --- | --- | --- | --- | --- | --- | --- | --- | --- | --- | --- | --- | --- | --- | --- | --- | --- | --- | --- | --- | --- |
| O=C(NO)c1ccc(-c2ccc3ncnc(Nc4ccc(OCc5cccc(F)c5)c(Cl)c4)c3c2)o1 | > 100 | > 50 | > 32 | 7.7 | 0.0039 | 0.002 | 1 | 1.4 | 1.7 | 0.46 | 85 | 2 |  |  | > 16 | > 5 | 0.2 | 0.27 | 15 |  |  |
| Nc1ccccc1NC(=O)c1ccc(-c2ccc3ncnc(Nc4ccc(OCc5cccc(F)c5)c(Cl)c4)c3c2)s1 | > 100 | > 50 | > 32 | > 32 | 0.0028 | 0.0049 | 2.3 | 2.5 | 6 | 2.1 | > 100 | 5.6 | > 10 | > 10 | 9.1 | 2.4 | 0.71 | 0.62 | 3.9 | 3.7 |  |
| CS(=O)(=O)CCNCc1ccc(-c2ccc3ncnc(Nc4ccc(OCc5cccc(F)c5)c(Cl)c4)c3c2)o1 [LAPATINIB] | > 30 |  | > 10 | > 10 |  |  |  |  |  |  | > 100 |  |  | > 10 |  |  | 0.007 | 0.002 | 0.003 | 5.9 |  |
| O=C(/C=C/c1ccc(-c2ccc3ncnc(Nc4ccc(OCc5cccc(F)c5)c(Cl)c4)c3c2)o1)NO | 3.65 | 0.61 | 6.3 | 11 | 0.0025 | 0.0041 | 3.3 | 7.34 | 7.7 | 0.44 | 120 | 12 | 0.63 | 0.23 | 3.9 | 1.9 | 0.82 | 0.51 | 2.1 | 3.2 | IC50 [10]: < 0.032 µM |
| Nc1ccccc1NC(=O)/C=C/c1cccc(-c2ccc3ncnc(Nc4ccc(OCc5cccc(F)c5)c(Cl)c4)c3c2)c1 | ≥ 20 | > 100 | > 32 | > 32 | 0.049 | 0.014 | 2.5 | 2.8 | 2.9 | 0.85 | > 100 | 5.5 | > 32 | > 32 | 27 | 12 | > 16 | 50 | 36 | 8.4 |  |
| Nc1ccccc1NC(=O)c1ccc(-c2ccc3ncnc(Nc4ccc(OCc5cccc(F)c5)c(Cl)c4)c3c2)o1 | > 100 | > 50 | > 32 | > 32 | 0.0029 | 0.0057 | 4 |  | 4.5 | 15 | > 100 | 3.9 | > 100 | > 10 | ≥ 16 | > 5 | 0.33 |  | > 50 | 8 |  |
| Nc1ccccc1NC(=O)CCc1ccc(-c2ccc3ncnc(Nc4ccc(OCc5cccc(F)c5)c(Cl)c4)c3c2)cc1 |  | > 32 | > 32 | > 32 | 0.015 | 0.0047 | 4.7 | 7.1 | 6.9 | 1.4 | > 100 | 27 | > 32 | > 32 | 22 | 8.6 | 0.2 | 4.4 | 13 | 8.3 |  |
| Nc1ccccc1NC(=O)/C=C/c1ccc(-c2ccc3ncnc(Nc4ccc(OCc5cccc(F)c5)c(Cl)c4)c3c2)o1 |  | > 100 | > 32 | > 32 | 0.026 | 0.0087 | 3.9 | 5.5 | 4.9 | 1.9 | > 100 | 8.5 | > 32 | > 32 | 18 | 5.3 | 3.6 | 0.26 | 22 | 6.5 |  |

More lines, main results first:

| EC50 [1] [µM] | IC50 (Histone deacetylase 1) [µM] | IC50 (Histone deacetylase 3) [µM] | IC50 (Histone deacetylase 8) [µM] | IC50 [2] [µM] | IC50 [3] [µM] | IC50 [4] [µM] | IC50 (Insulin receptor) [µM] | IC50 [5] [µM] | IC50 [6] [µM] | IC50 [7] [µM] | IC50 [8] [µM] | IC50 (Histone deacetylase) [µM] | IC50 [9] [µM] | SMILES | IC50 (A549) [µM] | IC50 (A-431) [µM] | IC50 (CAL-27) [µM] | IC50 (SK-BR-3) [µM] | IC50 (SK-OV-3) [µM] | IC50 (HeLa) [µM] | other results |
| --- | --- | --- | --- | --- | --- | --- | --- | --- | --- | --- | --- | --- | --- | --- | --- | --- | --- | --- | --- | --- | --- |
| > 10 | 0.65 | > 32 | 31 | 0.018 | 0.012 | 2.3 | 3.7 | 4.9 | 0.85 | > 100 | 9.1 | > 32 | 0.23 | O=C(/C=C/c1ccc(-c2ccc3ncnc(Nc4ccc(OCc5cccc(F)c5)c(Cl)c4)c3c2)cc1)NO | 1.1 | 0.51 | 0.28 | 0.33 | 1.2 | 0.92 |  |
| > 100 | > 100 | > 32 | > 32 | 0.029 | 0.015 | 2.7 | 3 | 4.9 | 1.2 | > 100 | 6.2 | > 32 | > 32 | Nc1ccccc1NC(=O)/C=C/c1ccc(-c2ccc3ncnc(Nc4ccc(OCc5cccc(F)c5)c(Cl)c4)c3c2)cc1 | 15 | 3.6 | 4 | 17 | 16 | 3.1 |  |
| > 100 | 0.94 | 0.56 | 0.98 | 0.0022 | 0.0035 | 1.8 | 1.7 | 1.7 | 0.2 | > 100 |  | 0.43 | 0.05 | O=C(NO)c1ccc(-c2ccc3ncnc(Nc4ccc(OCc5cccc(F)c5)c(Cl)c4)c3c2)s1 | 3.4 | 1.9 | 0.65 | 0.42 | 3.1 |  |  |
